Publication PMC10919040, “Exploration of newly synthesized azo-thiohydantoins as the potential alkaline phosphatase inhibitors via advanced biochemical characterization and molecular modeling approaches” (BMC Chemistry, 2024)

target: intestinal alkaline phosphatase (IAP) (Bos taurus, UniProt P19111); assay: Alkaline phosphatase inhibition assay (spectrophotometric, p-NPP substrate); format: biochemical, calf; settings: p-NPP 0.5 mM, pH 9.5, 37 °C, Mean ± SEM
Procedure: The measurement of intestinal alkaline phosphatase (IAP) activity was conducted using a spectrophotometric method, as described earlier. […] Additionally, 10 µL of the compound was added to the mixture. The mixture was subjected to pre-incubation with 5 µL of IAP (0.025 U/mL) for a duration of 10 min. The reaction was started by introducing 10 µL of the substrate, which was 0.5 mM p-NPP (para nitrophenyl phosphate disodium salt). Following the addition, the assay underwent an incubation period of 30 min at a temperature of 37 °C. The change in absorbance resulting from the release of p-nitrophenolate was monitored at a wavelength of 405 nm using a Thermo Scientific™ Multiskan GO™ microplate reader. The experiment was repeated three times, with each repetition being done in triplicate. […] The calculation of inhibition activity and IC50 values were carried out as discussed earlier.

intestinal alkaline phosphatase (IAP), sequence (P19111 20-533): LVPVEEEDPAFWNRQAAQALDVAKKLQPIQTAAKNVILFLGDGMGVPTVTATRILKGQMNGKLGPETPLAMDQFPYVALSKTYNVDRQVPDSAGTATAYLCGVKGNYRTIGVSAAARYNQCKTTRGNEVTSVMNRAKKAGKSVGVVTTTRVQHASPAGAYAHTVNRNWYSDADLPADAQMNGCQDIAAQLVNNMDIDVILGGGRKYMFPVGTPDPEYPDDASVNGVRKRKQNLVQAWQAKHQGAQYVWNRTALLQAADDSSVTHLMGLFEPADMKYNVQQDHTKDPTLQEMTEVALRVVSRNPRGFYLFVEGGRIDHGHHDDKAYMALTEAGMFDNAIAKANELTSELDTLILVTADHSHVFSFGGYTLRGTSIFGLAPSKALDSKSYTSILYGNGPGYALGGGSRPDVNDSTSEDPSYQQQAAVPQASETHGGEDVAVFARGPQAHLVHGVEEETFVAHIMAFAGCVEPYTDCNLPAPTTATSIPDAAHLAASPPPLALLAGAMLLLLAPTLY

SMILES	IC50
O=C1CNC(=S)N1/N=C/c1cc(/N=N/c2ccccc2)ccc1O [Compound 7a, 3-((E)-(2-hydroxy-5-((E)-phenyldiazenyl)benzylidene)amino)-2-thioxoimidazolidin-4-one]	4.85 ± 0.985 µM
Cc1c(Cl)cccc1/N=N/c1ccc(O)c(/C=N/N2C(=O)CNC2=S)c1 [Compound 7d, 3-((E)-(5-((E)-(3-chloro-2-methylphenyl)diazenyl)-2-hydroxybenzylidene)amino)-2-thioxoimidazolidin-4-one]	3.15 ± 0.853 µM
O=C1CNC(=S)N1/N=C/c1cc(/N=N/c2ccc(S(=O)(=O)O)cc2)ccc1O [Compound 7b, 4-((E)-(4-hydroxy-3-((E)-((5-oxo-2-thioxoimidazolidin-1-yl)imino)methyl)phenyl)-diazenyl)benzenesulfonic acid]	1.28 ± 0.214 µM
N[C@@H](Cc1ccccc1)C(=O)O [L–Phenyl alanine, reference compound]	80.2 ± 1.1 µM
O=C1CNC(=S)N1/N=C/c1cc(/N=N/c2cccc(Cl)c2Cl)ccc1O [Compound 7c, 3-((E)-(5-((E)-(2,3-dichlorophenyl)diazenyl)-2-hydroxybenzylidene)amino)-2 thioxoimidazolidin-4-one]	3.07 ± 0.687 µM

The next compounds have a lower IC50 than those just listed; values first:

IC50	SMILES
0.836 ± 0.097 µM	O=C1CNC(=S)N1/N=C/c1cc(/N=N/c2ccc([N+](=O)[O-])cc2)ccc1O [Compound 7f, 3-((E)-(2-hydroxy-5-((E)-(4-nitrophenyl)diazenyl)benzylidene)amino)-2-thioxoimidazolidin-4-one]
0.308 ± 0.065 µM	O=C(O)c1ccc(/N=N/c2ccc(O)c(/C=N/N3C(=O)CNC3=S)c2)cc1 [Compound 7e, 4-((E)-(4-hydroxy-3-((E)-((5-oxo-2-thioxoimidazolidin-1-yl)imino)methyl)phenyl)diazenyl)benzoic acid]

test system: not given; assay: not given; settings: not given

melting point	SMILES
271 to 273 °C	O=C1CNC(=S)N1/N=C/c1cc(/N=N/c2ccc([N+](=O)[O-])cc2)ccc1O [Compound 7f, 3-((E)-(2-hydroxy-5-((E)-(4-nitrophenyl)diazenyl)benzylidene)amino)-2-thioxoimidazolidin-4-one]
